Results: PubChem BioAssay (NCI)
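Where inhibition never reached the appropriate level, the endpoint shown equals the highest concentration tested. Otherwise, values were interpolated linearly from a five-concentration, 48-hour dose response in 96-well plates. At the TGI there is no net growth.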

How the values were obtained:
Assay in all cases: growth of human tumour cells (NCI), 48 h
[1] = system: 786-0 renal
[2] = system: A498 renal
[3] = system: A549 NSCLC
[4] = system: ACHN renal
[5] = system: BT-549 breast
[6] = system: CAKI-1 renal
[7] = system: CCRF-CEM leukemia
[8] = system: COLO 205 colon
[9] = system: DU-145 prostate
[10] = system: EKVX NSCLC
[11] = system: HCT-116 colon
[12] = system: HCT-15 colon
[13] = system: HL-60(TB) leukemia
[14] = system: HOP-62 NSCLC
[15] = system: HOP-92 NSCLC
[16] = system: HT29 colon
[17] = system: IGROV1 ovarian
[18] = system: K-562 leukemia
[19] = system: KM12 colon
[20] = system: LOX IMVI melanoma
[21] = system: M14 melanoma
[22] = system: MCF7 breast
[23] = system: MDA-MB-231 breast
[24] = system: MDA-MB-435
[25] = system: MDA-N
[26] = system: MOLT-4 leukemia
[27] = system: NCI-H226 lung
[28] = system: NCI-H23 lung
[29] = system: NCI/ADR-RES ovarian
[30] = system: OVCAR-3 ovarian
[31] = system: OVCAR-4 ovarian
[32] = system: OVCAR-5 ovarian
[33] = system: OVCAR-8 ovarian
[34] = system: PC-3 prostate
[35] = system: RPMI-8226 leukemia
[36] = system: RXF 393 renal
[37] = system: SF-295 CNS
[38] = system: SF-539 CNS
[39] = system: SK-MEL-2 melanoma
[40] = system: SK-MEL-28 melanoma
[41] = system: SK-MEL-5 melanoma
[42] = system: SK-OV-3 ovarian
[43] = system: SN12C renal
[44] = system: SNB-19 CNS
[45] = system: SNB-75 CNS
[46] = system: SR leukemia
[47] = system: SW-620 colon
[48] = system: T-47D breast
[49] = system: TK-10 renal
[50] = system: U251 CNS
[51] = system: UACC-257 melanoma
[52] = system: UO-31 renal
[53] = system: HCC-2998 colon
[54] = system: HS 578T breast
[55] = system: MALME-3M melanoma
[56] = system: NCI-H460 lung
[57] = system: NCI-H522 lung
[58] = system: SF-268 CNS
[59] = system: UACC-62 melanoma

## N#CC(C/C=C/c1ccccc1)NNC(=O)c1c(Cl)c(Cl)c(Cl)c(Cl)c1-c1nc2ccc(C(=O)c3ccccc3)cc2[nH]1 (centres undefined)
[1]
  TGI: 30.2 µM
[2]
  TGI: 41.9 µM
[3]
  TGI: 55.4 µM
[4]
  TGI: 97.3 µM
[5]
  TGI: 54.4 µM
[6]
  TGI: > 100 µM
[7]
  TGI: 20.3 µM
[8]
  TGI: 42 µM
[9]
  TGI: 50.7 µM
[10]
  TGI: 47.4 µM
[11]
  TGI: 62.2 µM
[12]
  TGI: 29.2 µM
[13]
  TGI: 54.5 µM
[14]
  TGI: 24.8 µM
[15]
  TGI: 73.3 µM
[16]
  TGI: 33.2 µM
[17]
  TGI: > 100 µM
[18]
  TGI: 55.2 µM
[19]
  TGI: > 100 µM
[20]
  TGI: 28.5 µM
[21]
  TGI: 30.9 µM
[22]
  TGI: 36.2 µM
[23]
  TGI: 34.4 µM
[24]
  TGI: 51.9 µM
[25]
  TGI: 19.4 µM
[26]
  TGI: 81.5 µM
[27]
  TGI: 41.6 µM
[28]
  TGI: 55.8 µM
[29]
  TGI: 31 µM
[30]
  TGI: 37.4 µM
[31]
  TGI: 73.9 µM
[32]
  TGI: 94.7 µM
[33]
  TGI: 37.1 µM
[34]
  TGI: 35.9 µM
[35]
  TGI: 50.2 µM
[36]
  TGI: 39.8 µM
[37]
  TGI: 22.4 µM
[38]
  TGI: 26.9 µM
[39]
  TGI: 45 µM
[40]
  TGI: > 100 µM
[41]
  TGI: 32 µM
[42]
  TGI: 55.5 µM
[43]
  TGI: 32.7 µM
[44]
  TGI: 35.8 µM
[45]
  TGI: 46.4 µM
[46]
  TGI: 45.2 µM
[47]
  TGI: > 100 µM
[48]
  TGI: 63.8 µM
[49]
  TGI: 66 µM
[50]
  TGI: 25 µM
[51]
  TGI: > 100 µM
[52]
  TGI: > 100 µM

## O=c1c2cc(I)ccc2nc(Sc2ccc([N+](=O)[O-])cc2[N+](=O)[O-])n1Cc1ccccc1
[1]
  TGI: 2.25 µM
[2]
  TGI: 21.3 µM
[3]
  TGI: > 85 µM
[4]
  TGI: 26.1 µM
[5]
  TGI: 9.46 µM
[6]
  TGI: 24.7 µM
[8]
  TGI: 17.2 µM
[9]
  TGI: 12.7 µM
[10]
  TGI: 17.4 µM
[53]
  TGI: 11.1 µM
[11]
  TGI: 2.71 µM
[12]
  TGI: 3.82 µM
[13]
  TGI: 5.5 µM
[14]
  TGI: 12.3 µM
[15]
  TGI: 8.56 µM
[54]
  TGI: > 36.1 µM
[16]
  TGI: 13.6 µM
[17]
  TGI: 6.42 µM
[18]
  TGI: > 100 µM
[19]
  TGI: > 31.2 µM
[20]
  TGI: 2.89 µM
[21]
  TGI: 5.31 µM
[55]
  TGI: 17.1 µM
[22]
  TGI: 5.59 µM
[23]
  TGI: 16.9 µM
[24]
  TGI: 5.35 µM
[25]
  TGI: 3.89 µM
[26]
  TGI: > 100 µM
[27]
  TGI: 10.3 µM
[28]
  TGI: 14.2 µM
[56]
  TGI: 29 µM
[57]
  TGI: 2570 nM
[29]
  TGI: 5.44 µM
[30]
  TGI: 4.87 µM
[31]
  TGI: 15.6 µM
[32]
  TGI: 22.7 µM
[33]
  TGI: 4.58 µM
[34]
  TGI: 13.8 µM
[35]
  TGI: > 20.1 µM
[36]
  TGI: 12.4 µM
[58]
  TGI: 3.77 µM
[37]
  TGI: 35.3 µM
[38]
  TGI: 4.09 µM
[39]
  TGI: 3.73 µM
[40]
  TGI: 35.2 µM
[41]
  TGI: 17.8 µM
[42]
  TGI: > 56.8 µM
[43]
  TGI: 2.95 µM
[44]
  TGI: 20.4 µM
[45]
  TGI: 16.7 µM
[46]
  TGI: > 100 µM
[47]
  TGI: > 100 µM
[49]
  TGI: 20.7 µM
[50]
  TGI: 13.2 µM
[51]
  TGI: 15.4 µM
[59]
  TGI: 7.24 µM
[52]
  TGI: 4.13 µM
